The target in series [1] is T1, human mGlu5 receptor (Homo sapiens (Human), UniProt P41594). The experiment in a line: Fold shift of agonist curve determination. As to conditions: ratio of EC50 agonist (quisqualate or glutamate) curves in presence and in absence of test compound; compound at 1 μM. The class given is cell-based. From the text: (§1) Cell lines stably transfected were generated using inducible expression vectors encoding human mGlu5 receptor using the Tetracycline-Regulated Expression system (T-REx™ system, Invitrogen, Life Technologies). Human mGluR5 open reading frame (ORF), comprehensive of the stop codon, were cloned into the pcDNA4/TO/myc-His™ A vector, carrying the TetO2. The insertion site was HindIII-PstI for mGluR5 receptors. The obtained constructs were then transfected into the T-REx CHO™ cell line using the FuGENE protocol (Roche); the CHO T-REx™ cell line stably expresses the Tet repressor (from the pcDNA6/TR plasmid) under the selection of blasticidin, 10 μg/ml. Stable clones were obtained selecting with zeocin 1 mg/ml and maintaining in ULTRA CHO medium (LONZA) supplemented with dialyzed FBS, zeocin, blasticidine, at 37° C., in an atmosphere of 5% CO2. The expression of h-mGluR5 receptors was de-repressed with 1 μg/ml tetracycline for 18 h before binding experimentation, while the expression of h-mGluR5 receptors was derepressed respectively with 3 ng/ml and 10 ng/ml tetracycline for 18 h before calcium fluorescence experimentation.
T1 sequence (P41594 21-1212): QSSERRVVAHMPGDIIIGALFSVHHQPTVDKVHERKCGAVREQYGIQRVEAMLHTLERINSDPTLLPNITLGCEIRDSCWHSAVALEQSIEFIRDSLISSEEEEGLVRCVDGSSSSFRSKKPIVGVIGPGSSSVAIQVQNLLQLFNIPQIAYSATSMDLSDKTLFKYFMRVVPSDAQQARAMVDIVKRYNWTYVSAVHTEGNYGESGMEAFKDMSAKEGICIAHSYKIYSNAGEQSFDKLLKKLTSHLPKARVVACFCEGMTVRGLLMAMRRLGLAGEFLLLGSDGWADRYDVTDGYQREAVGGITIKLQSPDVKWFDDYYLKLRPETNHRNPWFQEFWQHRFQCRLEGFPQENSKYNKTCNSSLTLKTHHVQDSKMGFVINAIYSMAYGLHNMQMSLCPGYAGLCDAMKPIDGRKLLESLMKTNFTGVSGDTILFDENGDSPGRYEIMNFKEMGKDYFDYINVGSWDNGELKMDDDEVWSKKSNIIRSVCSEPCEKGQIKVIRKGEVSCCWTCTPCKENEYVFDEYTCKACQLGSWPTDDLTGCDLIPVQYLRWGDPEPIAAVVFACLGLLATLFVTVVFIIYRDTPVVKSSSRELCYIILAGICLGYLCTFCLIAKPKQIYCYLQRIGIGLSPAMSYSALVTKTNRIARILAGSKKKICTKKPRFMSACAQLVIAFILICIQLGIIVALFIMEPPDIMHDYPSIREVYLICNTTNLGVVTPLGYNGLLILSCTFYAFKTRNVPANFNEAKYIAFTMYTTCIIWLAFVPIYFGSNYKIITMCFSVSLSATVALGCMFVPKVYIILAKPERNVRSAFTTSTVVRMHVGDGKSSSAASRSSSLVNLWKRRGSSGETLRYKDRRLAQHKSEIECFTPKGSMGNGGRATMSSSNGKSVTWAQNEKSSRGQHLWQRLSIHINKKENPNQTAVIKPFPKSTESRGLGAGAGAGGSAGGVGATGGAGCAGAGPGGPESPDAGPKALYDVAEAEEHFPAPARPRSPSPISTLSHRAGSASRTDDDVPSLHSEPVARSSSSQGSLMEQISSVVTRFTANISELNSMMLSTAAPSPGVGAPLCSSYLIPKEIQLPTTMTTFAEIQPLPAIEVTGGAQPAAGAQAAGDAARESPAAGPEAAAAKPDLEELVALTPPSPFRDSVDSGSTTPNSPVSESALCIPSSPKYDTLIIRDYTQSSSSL
(§2) Cells were seeded into black-walled, clear-bottom, 96-well plates at a density of 80000 cell/well, in RPMI (without Phenol Red, without L-glutamine; Gibco LifeTechnologies, CA) supplemented with 10% dialyzed FBS. Following 18-h incubation with tetracycline, the cells were loaded with […] Ca^2+-sensitive fluorescent dye Fluo-4/AM (Molecular Probes) in Hanks' balanced saline solution (HBSS, Gibco LifeTechnologies, CA) with […] Hepes (Sigma) and 2.5 mM probenecid (Sigma), for 1 h at 37° C. The cells were washed three times with HBSS to remove extracellular dye. Fluorescence signals were measured by using the fluorescence microplate reader Flexstation III (Molecular Devices) at sampling intervals of 1.5 s for 60 s.
The PAM potency was evaluated by performing an agonist concentration response curve in the presence of the compounds. The compounds at fixed concentration (0.01 or 0.1 or 1 μM) were applied 10 minutes before the incubation of the agonist (quisqualate or glutamate) dose-response curve. The fold shift was determined as ratio of EC50 agonist curves in presence and in absence of test compound. For instance, and in particular compound 34 has a fold shift of 2.7.

The target in series [2] is human mGluR5 receptor (Homo sapiens (Human), UniProt P41594). The series is described as follows: Radioligand binding assay at cloned human mGluR5 receptor subtype ([3H]MPEP). The settings on record: 4 nM [3H]MPEP, CHO T-REx h-mGluR5 cells, 60 min at 25° C.; read-out: mGlu5 Ki.
human mGluR5 receptor, sequence (P41594 21-1212): as above
Excerpt: as §1
Radioligand Binding Assay at Cloned Human mGluR5 Receptor Subtype
Affinity at transmembrane glutamate metabotropic cloned human mGluR5 receptor was evaluated according to the methods of Anderson (Anderson et al., J Pharmacol. Exp. Ther., (2002), Vol. 303(3), pp. 1044-51), with some modifications. Human cloned mGluR5 was obtained by re-suspending CHO T-REx h-mGluR5 cells (50 μg/well) in 20 mM HEPES, 2 mM MgCl2, 2 mM CaCl2, pH 7.4, that then were incubated in a final volume of 1 ml for 60 min at 25° C. with 4 nM [^3H]MPEP in the absence or presence of competing drugs. Non-specific binding was determined in the presence of 10 μM MPEP. The incubation was stopped by addition of cold Tris buffer pH 7.4 and rapid filtration through 0.2% polyethyleneimine pretreated Filtermat 1204-401 (Perkin Elmer) filters. The filters were then washed with cold buffer and the radioactivity retained on the filters was counted by liquid scintillation spectrometry (Betaplate 1204 BS-Wallac).
The inhibition curves of the tested compounds at cloned mGluR5 subtypes were determined by nonlinear regression analysis using software Prism 4.0 (Graphpad, San Diego, Calif.). The IC50 values and pseudo-Hill slope coefficients were estimated by the program. The values for the inhibition constant, Ki, were calculated according to the equation Ki=IC50/(1+[L]/Kd), where [L] is the concentration of radioligand and Kd is the equilibrium dissociation constant of the radioligand-receptor complex (Cheng et al., Biochem. Pharmacol. (1973), Vol. 22, pp. 3099-3108).

The target in series [3] is T1, human mGlu5 receptor. The series is described as follows: Calcium fluorescence measurements, potentiation of mGlu5 activation (positive allosteric modulator activity). In kind it is cell-based. The settings on record: EC20 of the agonist (quisqualate or glutamate), compounds applied 10 minutes before agonist.
Excerpt: as §1, §2
The antagonist potency was determined using the EC80 of the quisqualate used as agonist and the potentiation of mGlu5 activation was determined using the EC20 of the agonist (quisqualate or glutamate). The compounds were applied 10 minutes before the application of the agonist.
The negative allosteric modulator activity (expressed as IC50) and the positive allosteric modulator activity (expressed as EC50) of the compounds of the invention for the mGlu5 receptors is between 0.1 and 1000 nM.

The test system of series [4] is C57/BL/6J mice. The series is described as follows: Novel object recognition test in mice. The class given is in vivo, mouse. As to conditions: intraperitoneal route, 30 min before training, memory assessed 24 h after training. On the procedure: Novel object memory was assessed during three sessions. This task relies on the innate tendency of a mouse to explore unfamiliar objects vs. familiar objects. Testing was performed in an open-field arena. 24 h prior to training, C57/BL/6J 5-week male mice were habituated to the arena for 10 min (session 1).
During training, mice were administered by intraperitoneal route with the vehicle or the tested compound and after 30 min they were allowed for 5 min to explore two identical objects (A+A, session 2). Long-term object memory was assessed 24 h after the completion of training during which mice were given 5 min to explore the familiar (A) or the novel (B) object (A+B, session 3). The duration of exploration (defined as the mouse's snout or forelimbs physically touching or approaching within 1 cm of an object) of familiar and novel object was measured. The amount of time spent exploring the novel object over the total time exploring both novel and familiar object in each session was used to measure object memory.
For instance, and in particular the activity of compound of Example 34, expressed as MED (Minimal Effective Dose that induces statistically significant difference of exploration of the two objects) is of 10 mg/kg. Statistical analysis of exploration time values, was performed by using a paired Student's test, which was calculated using GraphPad Prisma 4.

Molecules are shown by their SMILES.

In the case of `CC1(C)CN(C(=O)c2cccc(Cl)c2)CC/C1=C\C#Cc1cccc(Cl)c1` [Example 34, (3-chlorophenyl){(4E)-4-[3-(3-chlorophenyl)prop-2-yn-1-ylidene]-3,3-dimethylpiperidin-1-yl}methanone], the “mGlu5 Fold Shift @1 μM” value in series [1] is on record as 2.7. Also, the Ki in series [2] came to 0.99 nM. In series [3], the EC50 amounted to 107 nM. Also, the “MED (Minimal Effective Dose that induces statistically significant difference of exploration of the two objects)” value in series [4] worked out at 10 mg/kg.

Usually Ki stands for a measure of affinity in units of concentration, obtained from inhibition or displacement. For orientation: EC50 means the midpoint of the concentration-response curve.

(Values after US11440922B2, “Heterocyclylmethylidene derivatives and their use as modulators of mGluR5 receptors” (Recordati Industria Chimica e Farmaceutica S.p.A., priority 2017, dated 2022).)
